Experimental findings from paper PMC5697763 (Bioconjugate chemistry, 2016) are described below.

Several values for one entry are separate records, joined by “and”; a condition that tells them apart may be missing. Identical values can stand only once. Like-named read-outs stand apart in the source and are kept apart here.

The target of this assay is LMCA1 (Listeria monocytogenes serovar 1/2a, UniProt Q8Y8Q5). The assay can be described thus: biochemical. Type of assay: biochemical.
Chain of LMCA1 (Q8Y8Q5 whole entry): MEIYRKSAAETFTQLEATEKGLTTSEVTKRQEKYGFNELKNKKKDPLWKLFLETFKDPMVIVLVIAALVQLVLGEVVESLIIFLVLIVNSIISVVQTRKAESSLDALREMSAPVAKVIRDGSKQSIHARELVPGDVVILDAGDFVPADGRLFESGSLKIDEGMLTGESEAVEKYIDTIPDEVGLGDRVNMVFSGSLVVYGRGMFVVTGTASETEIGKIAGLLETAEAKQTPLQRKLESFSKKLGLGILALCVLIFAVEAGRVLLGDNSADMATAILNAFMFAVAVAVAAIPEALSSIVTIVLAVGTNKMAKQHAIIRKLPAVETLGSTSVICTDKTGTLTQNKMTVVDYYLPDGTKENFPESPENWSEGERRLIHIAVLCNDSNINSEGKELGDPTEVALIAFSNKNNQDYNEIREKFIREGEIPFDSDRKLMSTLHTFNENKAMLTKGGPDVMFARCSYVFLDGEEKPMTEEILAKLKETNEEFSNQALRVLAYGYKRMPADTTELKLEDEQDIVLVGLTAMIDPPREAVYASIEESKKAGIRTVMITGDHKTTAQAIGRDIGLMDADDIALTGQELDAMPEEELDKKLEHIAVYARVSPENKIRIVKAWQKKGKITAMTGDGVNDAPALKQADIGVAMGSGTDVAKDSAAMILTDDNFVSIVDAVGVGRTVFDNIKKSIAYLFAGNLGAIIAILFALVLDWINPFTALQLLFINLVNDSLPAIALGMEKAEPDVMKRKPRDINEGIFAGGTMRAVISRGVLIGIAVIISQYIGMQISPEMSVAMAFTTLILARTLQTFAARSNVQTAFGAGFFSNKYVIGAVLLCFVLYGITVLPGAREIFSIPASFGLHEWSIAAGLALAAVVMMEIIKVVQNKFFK

Regarding `[Be+2]` [BeSO4], the IC50 (as a rule, the concentration that gives 50% inhibition) was 0.027 ± 0.005 mM. Also, the Hill coefficient (in general, a measure of the steepness of the concentration-response curve) (absence of NaF (H2O)) was −0.72 ± 0.08. Besides, the Hill coefficient (constant NaF concentration of 0.5 mM) is recorded as −1.1 ± 0.1.
Turning to `F` [NaF], the Hill coefficient is −2.4 and −2.4 ± 0.4; the IC50 was 2.3 ± 0.2 mM.
